In patent publication US20170009266A1, “PROCESS FOR THE ATTACHMENT OF A GALNAC MOIETY COMPRISING A (HETERO)ARYL GROUP TO A GLCNAC MOIETY, AND PRODUCT OBTAINED THEREBY” (SYNAFFIX B.V., priority 2014, published 2017):

Molecular target: T1, Gal-T1(Y289L,C342T) (Bos taurus, UniProt P08037, C342T/Y289L)
T1 construct: host or cells: E. coli
T1 sequence (P08037 130-402 V158I/P187L/I205M/L206V/Y289L/C342T): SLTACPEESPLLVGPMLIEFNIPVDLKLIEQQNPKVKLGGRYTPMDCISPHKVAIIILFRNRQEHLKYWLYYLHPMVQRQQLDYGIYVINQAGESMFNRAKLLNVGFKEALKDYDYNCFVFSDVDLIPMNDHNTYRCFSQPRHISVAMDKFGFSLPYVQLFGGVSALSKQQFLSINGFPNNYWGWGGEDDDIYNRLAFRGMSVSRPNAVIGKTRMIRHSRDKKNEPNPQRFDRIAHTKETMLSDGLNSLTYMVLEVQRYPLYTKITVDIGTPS
Test: Glycosyltransfer of UDP-galactosamine derivatives to trimmed antibody with Gal-T1(Y289L,C342T), mass spectral analysis
Assay type: biochemical, bovine
Method: A solution of 20 μg (modified) IgG was incubated for 1 hour at 37° C. with Fabricator™ (commercially available from Genovis, Lund, Sweden) (1.25 U/μL) in phosphate-buffered saline (PBS) pH 6.6 in a total volume of 10 μL. Fabricator™-digested samples were washed trice with milliQ using an Amicon Ultra-0.5, Ultracel-10 Membrane (Millipore) resulting in a final sample volume of approximately 40 μL. The Fc/2 fragment was analyzed by electrospray ionization time-of-flight (ESI-TOF) on a JEOL AccuTOF. Deconvoluted spectra were obtained using Magtran software.
Trimmed trastuzumab (10 mg/mL, 3.3 nmol), obtained by Endo S treatment of trastuzumab, was incubated with nicotinic acid variant of UDP-galactosamine (21, 2 mM) and Gal-T1(Y289L,C342T) (0.5 mg/mL, 3 μL/4 mg/ml) in 10 mM MnCl2 and 25 mM Tris-HCl pH 7.5 at 30° C. overnight. Mass spectral analysis of the sample after treatment with Fabricator™ (commercially available from Genovis) indicated the formation of the correct structure of CH2-CH3 fragment of 28 (24404 Da, expected mass 24405 Da, approximately 35% conversion), resulting from galactosamide nicotinic acid transfer to core GlcNAc(Fuc) substituted trastuzumab heavy chain.
A pET22b vector containing the sequence encoding residues 130-402 of bovine Gal-T1 with the Y289L and C342T mutations between the NdeI-BamHI sites was obtained from Genscript. Using this plasmid Gal-T1(Y289L,C342T) was expressed, isolated and refolded from inclusion bodies according to the reported procedure by Qasba et al. (Prot. Expr. Pur. 2003, 30, 219-76229, incorporated by reference herein). After refolding, the solution was dialyzed against 20 mM Tris pH 7.5 and the insoluble protein was removed by centrifugation (10 minutes 10.000 g). The soluble Gal-T1(Y289L,C342T), represented by SEQ ID NO: 25, was purified and concentrated using a cation exchange column (Source 15S HR16/10 column, GE Healthcare). After elution with 20 mM Tris-HCl pH 7.5, 1 M NaCl, the protein was dialyzed against 20 mM Tris-HCl pH 7.5. This procedure yielded 90 mg inclusion bodies from 0.5 L culture, which after refolding gave 3.9 mg active soluble protein.
Trimmed trastuzumab (10 mg/mL, 66 μM), obtained by Endo S treatment of trastuzumab, was incubated with the 4-azido-2,3,5,6-tetrafluorobenzoyl derivative of UDP-galactosamine (23b, 1 mM) and Gal-T1(Y289L,C342T) (1.0 mg/mL) in 10 mM MnCl2 and 25 mM Tris-HCl pH 8.0 at 30° C. overnight. Mass spectral analysis of the Fabricator™-digested sample indicated a partial conversion of core GlcNac(Fuc)-substituted trastuzumab (observed mass 24139 Da, calculated mass of 24136 Da) into the product 30b (observed mass 24518 Da, calculated mass of 24514 Da, approximately 10% of total Fc/2 fragment), resulting from transfer of 23b to core GlcNAc(Fuc)-substituted trastuzumab.
Trimmed cetuximab (5 mg/mL, 33 μM), obtained by Endo S treatment of cetuximab, was incubated with the 4-azido-2,3,5,6-tetrafluorobenzoyl derivative of UDP-galactosamine (23b, 2 mM) and Gal-T1(Y289L,C342T) (1.0 mg/mL) in 25 mM Tris-HCL pH 7.5 and 150 mM NaCl at 30° C. overnight. Mass spectral analysis of the Fabricator™-digested sample indicated a partial conversion of the core GlcNac(Fuc)-substituted adalimumab (observed mass 24138 Da, calculated mass of 24136 Da) into product 30b (observed mass 24518 Da, calculated mass of 24514 Da, approximately 20% of total Fc/2 fragment), resulting from transfer of 23b to core GlcNAc(Fuc)-substituted adalimumab.
Trimmed bevacizumab (5 mg/mL, 33 μM), obtained by Endo S treatment of bevacizumab, was incubated with the 4-azido-2,3,5,6-tetrafluorobenzoyl derivative of UDP-galactosamine (23b, 2 mM) and Gal-T1(Y289L,C342T) (1.0 mg/mL) in 25 mM Tris-HCL pH 7.5 and 150 mM NaCl at 30° C. overnight. […]

SMILES: O=C(NC1C(OP(=O)(O)OP(=O)(O)OCC2OC(n3ccc(=O)[nH]c3=O)C(O)C2O)OC(CO)C(O)C1O)c1cccnc1 (stereo not shown) [Compound 21, 3-pyridylcarbonyl Derivative of UDP-GalNH2]
- conversion (trimmed trastuzumab 10 mg/mL, UDP derivative 2 mM, enzyme 0.5 mg/mL (E. coli), pH 7.5, 30° C. overnight, Fabricator-digested): approximately 35%

SMILES: [N-]=[N+]=Nc1ccc(C(=O)NC2C(OP(=O)(O)OP(=O)(O)OCC3OC(n4ccc(=O)[nH]c4=O)C(O)C3O)OC(CO)C(O)C2O)cn1 (stereo not shown) [Compound 21b, 6-azidonicotinic Acid Derivative of UDP-GalNH2]
- product, % of total Fc/2 fragment (trimmed trastuzumab 10 mg/mL, UDP derivative 5 mM, enzyme 1.0 mg/mL, pH 7.5, 30° C. overnight): approximately 95%

SMILES: [N-]=[N+]=Nc1c(F)cc(C(=O)N[C@H]2[C@@H](OP(=O)(O)OP(=O)(O)OC[C@H]3O[C@@H](n4ccc(=O)[nH]c4=O)[C@H](O)[C@@H]3O)O[C@H](CO)[C@H](O)[C@@H]2O)cc1F [Compound 23, 4-azido-3,5-difluorobenzoyl Derivative of UDP-GalNH2]
- conversion of core GlcNAc(Fuc)-substituted trastuzumab into product (trimmed trastuzumab 10 mg/mL, UDP derivative 1 mM, enzyme 1.0 mg/mL, pH 8.0, 30° C. overnight, reduced sample): complete conversion

SMILES: [N-]=[N+]=Nc1c(F)c(F)c(C(=O)N[C@H]2[C@@H](OP(=O)(O)OP(=O)(O)OC[C@H]3O[C@@H](n4ccc(=O)[nH]c4=O)[C@H](O)[C@@H]3O)O[C@H](CO)[C@H](O)[C@@H]2O)c(F)c1F [Compound 23b, 4-azido-2,3,5,6-tetrafluorobenzoyl Derivative of UDP-GalNH2]
- product, % of total Fc/2 fragment (trimmed adalimumab 5 mg/mL, UDP derivative 2 mM, enzyme 1.0 mg/mL, pH 7.5, 30° C. overnight): approximately 30%
- product, % of total Fc/2 fragment (trimmed bevacizumab 5 mg/mL, UDP derivative 2 mM, enzyme 1.0 mg/mL, pH 7.5, 30° C. overnight): approximately 30%
- product, % of total Fc/2 fragment (trimmed cetuximab 5 mg/mL, UDP derivative 2 mM, enzyme 1.0 mg/mL, pH 7.5, 30° C. overnight): approximately 20%
- product, % of total Fc/2 fragment (trimmed trastuzumab 10 mg/mL, UDP derivative 1 mM, enzyme 1.0 mg/mL, pH 8.0, 30° C. overnight): approximately 10%
